Reference: patent US20110207726A1, “Inhibitors of Human Cathepsin L, Cathepsin B, and Cathepsin S” (The Trustees of the University of Pennsylvania, priority 2008, published 2011)
Like-named read-outs stand apart in the source and are kept apart here.

Legend:
Format in all cases: biochemical
[1] = biological target: T1, Human spleen cathepsin S (Homo sapiens, UniProt P25774); test: Cathepsin S assay, IC50 determination
T1 construct: Human spleen cathepsin S (Calbiochem 219344, 40 ng/mL); purchased Calbiochem 219344; host or cells: human spleen
T1 sequence (P25774 115-331): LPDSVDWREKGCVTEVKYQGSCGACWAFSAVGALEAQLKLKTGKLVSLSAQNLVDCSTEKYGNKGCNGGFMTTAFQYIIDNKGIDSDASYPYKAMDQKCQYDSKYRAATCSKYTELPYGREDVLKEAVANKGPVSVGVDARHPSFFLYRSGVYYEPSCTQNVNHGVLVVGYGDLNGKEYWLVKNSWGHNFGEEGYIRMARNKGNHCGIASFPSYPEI
Method: (§1) Human spleen cathepsin S (Calbiochem 219344, 40 ng/mL) was assayed using 15 microM Z-Phe-Arg-AMC substrate. Human liver cathepsin B (Calbiochem 219362, 65 ng/mL) was assayed using 15 microM Z-Arg-Arg-AMC substrate (Bachem I-1135). All reactions were performed in 20 mM sodium acetate buffer containing 1 mM EDTA and 5 mM cysteine, pH 5.5.
(§2) Compounds were serially diluted in DMSO and transferred into a 96-well Corning 3686 assay microplate to give a 16-point two-fold serial dilution dose response ranging from 25 microM to 760 pM. Human liver cathepsin L (Calbiochem 219402) was activated by incubating with assay buffer for 30 min. Upon activation, cathepsin L (300 pM, 8.7 ng/mL) was incubated with 1 microM Z-Phe-Arg-AMC substrate (Sigma C9521) and test compound in […] of assay buffer for 1 hour at room temperature. Fluorescence of AMC released by enzyme-catalyzed hydrolysis of Z-Phe-Arg-AMC was read on a PerkinElmer Envision microplate reader (excitation 355 nm, emission 460 nm). Data were scaled using internal controls and fitted to a four-parameter logistic model (IDBS XLfit equation 205) to obtain IC50 values in triplicate.
(§3) Compound No. 1 was assayed for inhibition against papain and cathepsins B, G, K, S, and V. Papain from Carica papaya (Calbiochem 5125, 11 ng/mL), human cathepsin K (Calbiochem 342001, 35 ng/mL), human spleen cathepsin S (Calbiochem 219344, 40 ng/mL), and human cathepsin V (Calbiochem 219467, 39 ng/ml) were assayed using Z-Phe-Arg-AMC substrate at 20 μM, 20 μM, 15 μM, and 1 μM, respectively. Human liver cathepsin B (Calbiochem 219362, 65 ng/mL) was assayed using 15 μM Z-Arg-Arg-AMC substrate (Bachem I-1135). Human neutrophil cathepsin G (Calbiochem 219373, 4.2 μg/mL) was assayed using 15 μM Suc-Ala-Ala-Pro-Phe-AMC substrate (Sigma S9761). All reactions were performed in 20 mM sodium acetate buffer containing 5 mM cysteine and 1 mM EDTA, pH 5.5. Reaction progress was monitored using the Envision microplate reader. IC50 values were measured in triplicate.

[2] = biological target: T2, Human liver cathepsin B (Homo sapiens, UniProt P07858); test: Cathepsin B assay, IC50 determination
T2 construct: Human liver cathepsin B (Calbiochem 219362, 65 ng/mL); purchased Calbiochem 219362; host or cells: human liver
Method: as §1, §2, §3

[3] = biological target: T3, human liver cathepsin L (Homo sapiens, UniProt P07711); test: Cathepsin L assay, IC50 determination
T3 construct: 8.7 ng/mL human liver cathepsin L (Calbiochem 219402); purchased Calbiochem 219402; host or cells: human liver
T3 sequence (P07711 114-288 limits assumed): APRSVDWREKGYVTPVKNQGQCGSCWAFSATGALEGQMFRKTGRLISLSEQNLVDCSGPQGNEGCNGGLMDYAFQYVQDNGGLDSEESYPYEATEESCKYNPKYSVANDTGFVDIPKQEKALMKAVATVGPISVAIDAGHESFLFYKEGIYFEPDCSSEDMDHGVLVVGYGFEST
T3 sequence (P07711 292-333 limits assumed): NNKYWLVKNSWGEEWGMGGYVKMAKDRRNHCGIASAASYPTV
Method: Assay buffer consisted of 20 mM sodium acetate, 1 mM ethylenediaminetetraacetic acid (EDTA) and 5 mM cysteine, pH 5.5. Cathepsin L was incubated in assay buffer for 30 minutes prior to dispensing into wells to allow for efficient reduction of the active site cysteine required for full enzymatic activity.
Upon activation, cathepsin L (300 pM, 8.7 ng/mL) was incubated with 1 microM Z-Phe-Arg-AMC substrate (Sigma C9521) and test compound in […] of assay buffer for 1 hour at room temperature.
All reactions were performed in 20 mM sodium acetate buffer containing 5 mM cysteine and 1 mM EDTA, pH 5.5. Reaction progress was monitored using the Envision microplate reader. IC50 values were measured in triplicate.

[4] = Table 17, n = 3, C, S or O at the sulfur position, read-out: Cathepsin L inhibitory activity IC50

SMILES	IC50 ([1]; Table 1, read-out: IC50 Cat S)	IC50 ([2]; Table 1, read-out: IC50 Cat B)	IC50 ([3]; Table 1, read-out: IC50 Cat L)	further results
CCc1ccccc1NC(=O)CSC(=O)NNC(=O)[C@@H](COCc1ccccc1)NC(=O)OC(C)(C)C [Compound No. 48]	4.42 µM	> 25 µM	15.4 µM	
CC(C)(C)OC(=O)N[C@@H](Cc1c[nH]c2ccccc12)C(=O)NNC(=O)NCC(=O)N1CCCc2ccccc21 [Compound No. 125]				IC50 ([1]; Tables 2-11, read-out: Cat S): 13 µM; IC50 ([2]; Tables 2-11, read-out: Cat B): ≥ 25 µM; IC50 ([3]; Tables 2-11, read-out: Cat L): 2.34 µM
CCOC(=O)c1cccc(NC(=O)CSC(=O)NNC(=O)[C@H](Cc2c[nH]c3ccccc23)NC(=O)OC(C)(C)C)c1 [Compound No. 8]	0.68 µM	> 25 µM	0.062 µM	
CCc1ccccc1NC(=O)CSC(=O)NNC(=O)[C@H](COCc1ccccc1)NC(=O)OC(C)(C)C [Compound No. 46]	2.15 µM	14.3 µM	1.27 µM	
CCc1ccccc1NC(=O)CSC(=O)NNC(=O)C[C@H](COCc1ccccc1)NC(=O)OC(C)(C)C [Compound No. 82]	4.47 µM	> 25 µM	> 25 µM	
CCc1ccccc1NC(=O)CSC(=O)NNC(=O)C[C@@H](Cc1c[nH]c2ccccc12)NC(=O)OC(C)(C)C [Compound No. 86]	> 25 µM	> 25 µM	> 25 µM	
CC(C)(C)OC(=O)N[C@@H](Cc1ccc(OC(=O)OC(C)(C)C)cc1)C(=O)NNC(=O)C(=O)N1CCc2ccccc2C1 [Compound No. 127]				IC50 ([1]; Tables 2-11, read-out: Cat S): ≥ 25 µM; IC50 ([2]; Tables 2-11, read-out: Cat B): ≥ 25 µM; IC50 ([3]; Tables 2-11, read-out: Cat L): ≥ 25 µM
O=C(CCc1c[nH]c2ccccc12)NNC(=O)CCc1c[nH]c2ccccc12 [Compound No. 114]				IC50 ([1]; Tables 2-11, read-out: Cat S): ≥ 25 µM; IC50 ([2]; Tables 2-11, read-out: Cat B): ≥ 25 µM; IC50 ([3]; Tables 2-11, read-out: Cat L): ≥ 25 µM
CCc1ccccc1NCCSC(=O)NNC(=O)[C@H](CC(C)C)NC(=O)OC(C)(C)C [Compound No. 30]	> 25 µM	> 25 µM	> 25 µM	
CSCC[C@H](NC(=O)OC(C)(C)C)C(=O)NNC(=O)SCC(=O)N1CCc2ccccc2C1 [Compound No. 19]	0.41 µM	2.31 µM	0.52 µM	
CC(C)(C)OC(=O)N[C@@H](Cc1c[nH]c2ccccc12)C(=O)NNC(=O)SCC(=O)N1CCOc2ccccc21 [Compound No. 10]	0.95 µM	3.23 µM	0.22 µM	
CCc1ccccc1NC(=O)CSC(=O)NNC(=O)[C@H](Cc1ccc(OCc2ccccc2)cc1)NC(=O)OC(C)(C)C [Compound No. 36]	2.83 µM	5.08 µM	0.83 µM	
CCc1ccccc1NC(=O)CSC(=O)NNC(=O)C[C@@H](NC(=O)OC(C)(C)C)C(C)C [Compound No. 78]	> 25 µM	11.5 µM	7.52 µM	
CCc1ccccc1NCCSC(=O)NNC(=O)[C@H](Cc1ccccc1)NC(=O)OC(C)(C)C [Compound No. 35]	> 25 µM	> 25 µM	> 25 µM	
CCc1ccccc1NC(=O)CSc1nnc([C@@H](N)Cc2c[nH]c3ccccc23)o1 [Compound (ii)]				cathepsin L inhibitory activity (in words) [3]: completely devoid of activity
CC(OCc1ccccc1)[C@H](NC(=O)OC(C)(C)C)C(=O)NNC(=O)SCC(=O)N1CCCc2ccccc21 (stereo partly shown) [Compound No. 45]	5.15 µM	4.35 µM	> 25 µM	
C/C=C(/C=O)[C@@H](CC=O)CC(=O)OCCc1ccc(O)cc1 [Compound No. 121]				IC50 ([1]; Tables 2-11, read-out: Cat S): ≥ 25 µM; IC50 ([2]; Tables 2-11, read-out: Cat B): ≥ 25 µM; IC50 ([3]; Tables 2-11, read-out: Cat L): ≥ 25 µM
CC(C)(C)OC(=O)N[C@@H](Cc1c[nH]c2ccccc12)C(=O)NNC(=O)SC1CCN(c2ccccc2)C1=O (stereo partly shown) [Compound No. 14]	2.07 µM	14 µM	1.05 µM	
CC(C)(C)OC(=O)N[C@@H](Cc1c[nH]c2ccccc12)C(=O)NNC(=O)SCC(=O)N1CCc2ccc(Br)cc2C1c1ccccc1 (stereo partly shown) [Compound No. 13]	2.9 µM	> 25 µM	1.03 µM	
CCc1ccccc1NC(=O)COC(=O)NNC(=O)C(Cc1c[nH]c2ccccc12)NC(=O)OC(C)(C)C (stereo not shown) [2-ethylanilide O]				IC50 [3, 4]: 0.028 ± 0.004 µM
CCc1ccccc1NC(=O)CSC(=O)NNC(=O)[C@@H](Cc1c[nH]c2ccccc12)NC(=O)OC(C)(C)C [R-enantiomer of Compound No. 1]				IC50 ([3]; read-out: IC50 against cathepsin L): 34 µM
CC(C)(C)OC(=O)NC(Cc1c[nH]c2ccccc12)C(=O)NNC(=O)SCC(=O)N1CCCc2ccccc21 (stereo not shown) [Tetrahydroquinoline S]				IC50 [3, 4]: 0.041 ± 0.002 µM

Second part, led by results:

IC50 ([1]; Table 1, read-out: IC50 Cat S)	IC50 ([2]; Table 1, read-out: IC50 Cat B)	IC50 ([3]; Table 1, read-out: IC50 Cat L)	SMILES	further results
> 25 µM	> 25 µM	≥ 25 µM	C[C@H](NC(=O)OC(C)(C)C)C(=O)NNC(=O)SCC(=O)N1CCCc2ccccc21 [Compound No. 26]	
4.24 µM	0.63 µM	0.68 µM	CC(C)[C@H](NC(=O)OC(C)(C)C)C(=O)NNC(=O)SCC(=O)N1CCCc2ccccc21 [Compound No. 22]	
> 25 µM	> 25 µM	> 25 µM	CCc1ccccc1NC(=O)CSC(=O)NNC(=O)[C@@H](C)CO[Si](C)(C)C(C)(C)C [Compound No. 71]	
> 25 µM	> 25 µM	> 25 µM	CC(C)(C)OC(=O)N[C@H](COCc1ccccc1)CC(=O)NNC(=O)SCC(=O)N1CCCc2ccccc21 [Compound No. 85]	
> 25 µM	> 25 µM	> 25 µM	CCc1ccccc1NC(=O)CSC(=O)NNC(=O)C[C@@H]1CCCN1C(=O)OC(C)(C)C [Compound No. 80]	
0.95 µM	9.28 µM	0.37 µM	CC(C)(C)OC(=O)N[C@@H](COCc1ccccc1)C(=O)NNC(=O)SCC(=O)N1CCc2ccccc2C1 [Compound No. 50]	
5.15 µM	4.35 µM	> 25 µM	CC(C)(C)OC(=O)N[C@@H](CCCCNC(=O)OCc1ccccc1)C(=O)NNC(=O)SCC(=O)N1CCCc2ccccc21 [Compound No. 57]	
> 25 µM	> 25 µM	> 25 µM	CC(C)(C)OC(=O)N1CCC[C@H]1C(=O)NNC(=O)SCC(=O)N1CCCc2ccccc21 [Compound No. 33]	
> 25 µM	> 25 µM	> 25 µM	C[C@@H](CC(=O)NNC(=O)SCC(=O)N1CCCc2ccccc21)NC(=O)OC(C)(C)C [Compound No. 75]	
> 25 µM	> 25 µM	≥ 25 µM	CCc1ccccc1NC(=O)CSC(=O)NNC(=O)[C@H](C)NC(=O)OC(C)(C)C [Compound No. 25]	
1.64 µM	> 25 µM	0.43 µM	CCOC(=O)c1cccc(NC(=O)CSC(=O)NNC(=O)[C@H](COCc2ccccc2)NC(=O)OC(C)(C)C)c1 [Compound No. 56]	
> 25 µM	≥ 25 µM	> 25 µM	CCc1ccccc1NC(=O)CSC(=O)NNC(=O)CNC(=O)OC(C)(C)C [Compound No. 64]	
2.15 µM	> 25 µM	3.67 µM	CCc1ccccc1NC(=O)CSC(=O)NNC(=O)[C@H](CCCNC(=N)N[N+](=O)[O-])NC(=O)OC(C)(C)C [Compound No. 62]	
0.31 µM	2.42 µM	0.33 µM	CSCC[C@H](NC(=O)OC(C)(C)C)C(=O)NNC(=O)SCC(=O)NCCc1c[nH]c2ccccc12 [Compound No. 20]	
1.31 µM	3.19 µM	0.086 µM	CC(C)(C)OC(=O)N[C@@H](Cc1ccc(OCc2ccccc2)cc1)C(=O)NNC(=O)SCC(=O)N1CCc2ccccc2C1 [Compound No. 39]	
15.2 µM	> 25 µM	> 25 µM	CCc1ccccc1NC(=O)CSC(=O)NNC(=O)C[C@@H](COCc1ccccc1)NC(=O)OC(C)(C)C [Compound No. 84]	
1.65 µM	2.63 µM	1.09 µM	CCc1ccccc1NC(=O)CSC(=O)NNC(=O)[C@H](CC(C)C)NC(=O)OC(C)(C)C [Compound No. 29]	
